Reference: US20260000670A1 (priority 2022, published 2026)

Columns and labels:
[1] = system: human whole blood; assay: AAV8-dependent cytokine release in human whole blood from four healthy donors with IVIG; type: cell-based
Protocol: FIGS. 6A-6C: Dasatinib inhibits AA V8-dependent cytokine release in human whole blood. Fresh whole blood from 4 healthy donors was incubated with either PBS or AAV8-hSEAP (5e11 vg/mL) with IVIG (PRIVIGEN, 1/100) for 24 hrs. Dasatinib was added at the concentration of 50 nM 1 hr before addition of AAV8. In some of the culture wells, a second dose of dasatinib was added 9 hrs after AAV8 treatment (dasa 50 nM 2x). After 24 hrs, the plasma was collected and cytokines measured using Quanterix kits. Depicted are the cytokine fold increases over PBS for IFN-γ and TNF-α (FIG. 6A), IL-6 and IL-1x (FIG. 6B), and IL-2 and IL-1β (FIG. 6C), with the percentages of inhibition in the presence of dasatinib (means +/−SEM).
To study in more detail the effects of dasatinib on AAV-dependent cytokine release, another whole blood assay was performed. Whole blood from four healthy donors was incubated with AAV8-hSEAP (5e11 vg/ml) for 24 hrs. Intravenous Immunoglobulin (IVIG, Privigen) which contains anti-AAV antibodies was added to the blood samples. Dasatinib was added at 50 nM 1 hr before the AAV treatment, PBS was used as a negative control. As the half-life of dasatinib is very short (Lindauer M et al, Recent Results Cancer Res. 2010;184:83-102), a second dasatinib addition was performed 9 hrs after the AAV treatment. After 24 hrs, plasma supernatants were collected and cytokines measured using Quanterix kits. […] Inhibition of AAV-mediated cytokine release likely contributes to the effect of dasatinib on antibody formation.

[2] = system: C57B1/6 mice; assay: transgene expression (hSEAP, hFIX) in serum following rAAV8 re-administration; type: in vivo
Protocol: FIG. 1. rAAV8 readministration in mice and Dasatinib treatment. C57B1/6 mice were intravenously dosed on study day 1 with a rAAV8 encoding the hSEAP (human secreted alkaline phosphatase) at the dose of 1E12 vg/kg. On study day 22, they received a second rAAV8 encoding hFIX (human Factor IX) at the dose of 5E13 vg/kg. […] Group 2 (immunized mice, n=10) received both rAAV8 injections. Group 3 mice (n=10) received the two rAAV8 injections and were treated by oral gavage with 50 mg/kg dasatinib twice per day for 7 days starting on the day of first rAAV8 dosing. Blood samples were collected one day before and every 7 days after the first rAAV8 treatment.
FIGS. 4A-4B. Dasatinib treatment allows transgene expression following rAAV re-administration. Serum was isolated from blood collected on study days 0, 8, 15, 21, 29 and 36 (FIG. 1). (FIG. 4A) Expression of the first transgene hSEAP was measured by chemiluminescence. (FIG. 4B) After AAV8 re-administration, expression of the second transgene hFactorIX was measured by ELISA. Mean concentrations are shown +/−SD.
To assess whether dasatinib could efficiently prevent anti-AAV antibody formation after rAAV administration and allow efficient re-administration of rAAV, a study was conducted in mice (FIG. 1). Groups of C57B1/6 mice were intravenously dosed with a first rAAV8 encoding hSEAP (human secreted alkaline phosphatase, under control of a CMV promoter) at the dose of 1E12vg/kg on study day 1. On study day 22, they were dosed with a second rAAV8 encoding hFIX (human Factor IX, under control of a CMV promoter) at the dose of 5E13 vg/kg. […]
Expression of the first transgene hSEAP and second transgene hFIX were measured in the serum samples from the experiment presented above (FIG. 1, Example 1). As expected, human SEAP was detected in the serum of mice from Groups 2 and 3, already 7 days after injection of AAV8-hSEAP on study day 1 (FIG. 4A). […] In contrast, hFIX expression was detected in the serum of all mice from the non-immunized Group 1 (mean: 2107 ng/ml) as well as in most mice from the dasatinib-treated Group 3 (average: 1398 ng/ml).

[3] = dasatinib 50 nM, 24 hrs, AAV8-hSEAP 5e11 vg/ml with IVIG

In the case of `Cc1nc(Nc2ncc(C(=O)Nc3c(C)cccc3Cl)s2)cc(N2CCN(CCO)CC2)n1` [dasatinib, N-(2-chloro-6-methylphenyl)-2-[[6-[4-(2-hydroxyethyl)-1-piperazinyl]-2-methyl-4-pyrimidinyl]amino]-5-thiazole carboxamide monohydrate], the “inhibition of cytokine production with second dasatinib addition versus single addition” value ([1]; dasatinib 50 nM added both 1 hr before and 9 hrs after AAV treatment) is reported as “more pronounced”, the “production of IFN-Y” value [1, 3] is reported as “inhibited” and the “production of IL-1β” value [1, 3] is reported as “inhibited”. For the same compound, the “production of IL-2” value [1, 3] was “inhibited”, the “production of IL-6” value [1, 3] was “inhibited” and the “production of IL-la” value [1, 3] was “inhibited”. For the same compound, the “production of TNF-α” value [1, 3] was “inhibited”, the “human SEAP in serum” value ([2]; Group 3, 7 days after AAV8-hSEAP on study day 1) was “detected” and the “hFIX expression in serum (average)” value ([2]; Group 3, after AAV8-hFIX 5E13 vg/kg on day 22, dasatinib 50 mg/kg twice per day for 7 days at first rAAV8 dosing) was 1398 ng/mL. For the same compound, the “hFIX expression detected in serum” value ([2]; Group 3, after second rAAV8 on day 22) was “in most mice”.
